Key:
[1] = molecular target: hTRPA1 (Homo sapiens, UniProt O75762); experiment: Whole-cell patch clamp, inward currents in HEK293 cells expressing hTRPA1; format: cell-based
Protocol: Cell Culture and Transfection. CD4^+ Myla cell line was cultured in RPMI 1640 media (GIBCO), supplemented with 2 mM Glutamine (GIBCO), 100 U/mL IL-2 (Sigma), 100 U/mL IL-4 (Sigma), and 10% human AB serum (Sigma). HuT 102 cell line was cultured in RPMI 1640 supplemented with pyruvate, HEPES, and 10% (v/v) fetal bovine serum (HyClone). HEK293-hTRPA1 stable cell line was cultured in MEM (GIBCO) containing 2 mM Glutamine, 4 μg/mL Blasticidin, 10% FBS (v/v). B16 and CHO cells were cultured in high glucose (4.5 g/L) Dulbecco's Modified Eagle's Medium (GIBCO) containing 10% (v/v) fetal bovine serum (GIBCO). Culture media were supplemented with 50 units/mL of penicillin and 50 μg/mL streptomycin, and cultures were maintained with 5% CO2 in 37° C. incubator. Transfection (2 μg cDNA) was performed with Lipofectamine™ 2000 Reagent (Invitrogen) at 80% confluency and the transfected cells were cultured in the same media for 48 hr before electrophysiological and biochemical studies.
(§1) Whole-Cell Patch Clamp Recordings in HEK293 Cells, CHO Cells, and DRG Neurons. Whole-cell patch clamp recordings were performed at room temperature using an Axopatch-200B amplifier (Axon Instruments) with a Digidata 1440B (Axon Instruments). In this study, we only examined small-diameter mouse DRG neurons (<25 μM) and small-diameter human DRG neurons (<55 μM). The patch pipettes were pulled from borosilicate capillaries (World Precision Instruments) using a P-97 Flaming/Brown micropipette puller (Sutter Instrument). Pipette resistance was 4-6 MΩ for whole-cell and outside-out recording. For inward current recordings in mouse and human DRG neurons, HEK293 cells, and CHO cells, the internal solution contains (in mM): 140 CsCl, 10 EGTA, 10 HEPES, and 2 Mg-ATP, adjusted to pH 7.3 with CsOH. Whole cell recordings were performed in an extracellular solution that contains (in mM): 140 NaCl, 5 KCl, 2 MgCl2, 10 HEPES, and 10 glucose, adjusted to pH 7.4 with NaOH and osmolarity to 300-310 mOsm. […] Action potential recordings were performed in small-diameter DRG neurons, with the following solutions: i) internal pipette solution contains: 126 mM K-gluconate, 10 mM NaCl, 1 mM MgCl2, 10 mM EGTA, 10 mM HEPES and 2 mM Na-ATP, adjusted to pH 7.4 with KOH and osmolarity to 295-300 mOsm), and ii) extracellular solution contains: 140 mM NaCl, 5 mM KCl, 2 mM MgCl2, 2 mM CaCl2, 10 mM HEPES, 10 mM glucose, adjusted to pH 7.4 with KOH.

[2] = system: DRG neurons; experiment: Calcium imaging in cultured DRG neurons of Pirt-GCaMP3 mice; format: cell-based, mouse; conditions: for DRG neurons showing Ca2+ increase / responses: 544 neurons from 3 mice
Protocol: Primary Cultures of Mouse and Human Sensory Neurons. […] Cells were mechanically dissociated with a flame polished Pasteur pipette in the presence of 0.05% DNase I (Sigma).
Ca^2+ Imaging. […] The imaging buffer includes 140 mM NaCl, 10 mM D-(+)-Glucose, 1 mM MgCl2, 2 mM CaCl2, 5 mM KCl, 10 mM HEPES, pH=7.4, osmolarity=320 mOsm/L. Calcium signals were measured using green emitted light in a 3 s interval. Ca ^2+ signal amplitudes were presented as ΔF/F0=(Ft−F0)/F0 as ratio of fluorescence difference (Ft−F0) to basal value (F0). The average fluorescence intensity in the baseline period was taken as F0. Ca ^2+ imaging was also analyzed in HEK293-TRPA1 cell line after loading cells with […] fura2-AM (Invitrogen) for 40 min in the Ca^2+ imaging buffer. Ca^2+ imaging protocol was a ratio metric method with 340/380-nm wavelength light for dual excitation. Data were presented as ΔR/R0, determined as the fraction ΔR (Rt−R0) of the increase of a given ratio over baseline ratio (R0).

[3] = system: small-diameter DRG neurons; experiment: Patch clamp, inward currents and action potentials in small-diameter mouse DRG neurons; format: cell-based; conditions: for small-diameter neurons responding with inward currents or action potentials: AITC 15/90, miR-711 15/130
Protocol: Primary Cultures of Mouse and Human Sensory Neurons. DRGs or TGs were removed aseptically from mice (4-6 weeks) and incubated with collagenase (1.25 mg/mL, Roche)/dispase-II (2.4 units/mL, Roche) at 37° C. for 90 min, then digested with 0.25% trypsin for 8 min at 37° C., followed by 0.25% trypsin inhibitor. Cells were mechanically dissociated with a flame polished Pasteur pipette in the presence of 0.05% DNase I (Sigma). DRG cells were plated on glass coverslips and grown in a neurobasal defined medium (with 2% B27 supplement, Invitrogen) with 5 μM AraC and 5% CO2 at 36.5° C. DRG neurons were grown for 24 hr before use.
as §1

[4] = miR-711 50 μM, histamine 500 μM, CQ 1,000 μM, AITC 200 μM

Chain of hTRPA1 (O75762 whole entry): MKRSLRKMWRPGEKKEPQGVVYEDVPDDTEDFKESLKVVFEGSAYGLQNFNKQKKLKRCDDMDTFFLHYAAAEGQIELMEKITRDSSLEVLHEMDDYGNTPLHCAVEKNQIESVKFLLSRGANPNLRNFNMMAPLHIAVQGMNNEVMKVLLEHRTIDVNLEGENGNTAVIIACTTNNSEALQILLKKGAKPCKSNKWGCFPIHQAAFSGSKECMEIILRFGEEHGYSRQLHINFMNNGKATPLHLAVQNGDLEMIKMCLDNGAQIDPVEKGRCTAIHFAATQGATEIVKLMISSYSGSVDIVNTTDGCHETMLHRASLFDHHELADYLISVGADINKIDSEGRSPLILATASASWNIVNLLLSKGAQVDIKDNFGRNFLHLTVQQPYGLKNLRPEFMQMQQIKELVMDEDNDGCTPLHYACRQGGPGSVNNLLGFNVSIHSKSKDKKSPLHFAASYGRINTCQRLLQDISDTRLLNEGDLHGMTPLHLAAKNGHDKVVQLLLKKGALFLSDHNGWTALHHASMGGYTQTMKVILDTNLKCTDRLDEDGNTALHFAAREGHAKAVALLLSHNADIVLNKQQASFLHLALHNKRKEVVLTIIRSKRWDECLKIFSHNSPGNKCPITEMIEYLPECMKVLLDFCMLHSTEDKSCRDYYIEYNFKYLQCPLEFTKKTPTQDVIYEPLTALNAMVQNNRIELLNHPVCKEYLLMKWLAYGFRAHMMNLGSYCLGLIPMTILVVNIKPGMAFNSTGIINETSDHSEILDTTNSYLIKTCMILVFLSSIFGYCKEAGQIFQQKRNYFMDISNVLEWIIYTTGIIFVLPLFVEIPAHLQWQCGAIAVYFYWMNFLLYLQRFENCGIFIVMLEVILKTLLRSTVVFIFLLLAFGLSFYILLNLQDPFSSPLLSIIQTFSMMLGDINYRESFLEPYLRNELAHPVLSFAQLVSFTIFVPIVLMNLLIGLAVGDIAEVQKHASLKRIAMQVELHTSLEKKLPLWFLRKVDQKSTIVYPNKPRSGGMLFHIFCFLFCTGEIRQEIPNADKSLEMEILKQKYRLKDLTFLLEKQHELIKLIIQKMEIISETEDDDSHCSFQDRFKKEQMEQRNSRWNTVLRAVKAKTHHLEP

Compound: CCC(=N\O)/C(C)=C/c1ccc(F)cc1 [A967079, (1E,3E)-1-(4-Fluorophenyl)-2-methyl-1-pentene-3-one oxime]
- block of miR-711-evoked currents ([1]; A967079 10 and 50 μM): dose-dependently blocked
- block of miR-711-evoked calcium responses in DRG neurons ([2]; miR-711 50 μM, A967079 10 μM): completely blocked
- block of miR-711-induced action potentials ([3]; A967079 10 μM): blocked
- block of miR-711-induced inward currents in DRG neurons ([3]; A967079 10 μM): blocked

Compound: C=CCN=C=S [AITC]
- miR-711-responsive DRG neurons that also responded ([2]; histamine 500 μM, CQ 1,000 μM, AITC 200 μM): all
- DRG neurons showing Ca2+ increase / responses [2, 4]: 22.6%
- small-diameter neurons responding with inward currents or action potentials [3]: 16.7%

Compound: NH2-FRNELAYPVLTFGQL-COOH (H-FRNELAYPVLTFGQL-OH) [blocking peptide]
- effect on AITC-induced inward current ([1]; peptide 25 μM): did not affect
- inhibition of miR-711-induced TRPA1 inward currents ([1]; peptide 25 μM): suppressed

Compound: miR-711: mmu-miR-711: gggacccggggagagauguaag (SEQ ID NO: 5) (GGGACCCGGGGAGAGAUGUAAG; chemistry not given here)
- desensitization of TRPA1 after second application ([1]; 10 μM): did not induce obvious desensitization
- current-voltage relationship ([1]; 10 μM, I/V curve): outward rectification
- reversal potential of evoked current ([1]; 10 μM, I/V curve): 0 mV
- inward currents ([1]; bath application, miRNAs and core sequence 10 μM, AITC 50 μM): produced inward currents
- potency for inducing TRPA1 activation (dose-response curve) ([1]; compared with AITC): more potent than AITC
- latency of inward currents ([1]; miR-711 10 μM versus AITC 50 μM, bath perfusion): shorter than that of AITC
- calcium signaling in DRG neurons ([2]; 10 μM): did not evoke meaningful calcium signaling
- DRG neurons showing Ca2+ increase / responses [2, 4]: 3.9%
- DRG neurons showing calcium responses ([2]; miR-711 50 μM, 15 of 310 neurons): 4.8%
- action potentials in small-diameter DRG neurons ([3]; 10 μM, WT mice): induced action potentials
- inward currents in small-diameter DRG neurons ([3]; 10 μM, WT mice): induced rapid inward currents
- small-diameter neurons responding with inward currents or action potentials [3]: 11.5%
- miR-711-induced excitation (action potentials) ([3]; TRPA1-deficient neurons): lost
- miR-711-induced inward currents in DRG neurons of knockout mice ([3]; Trpa1 knockout mice): abolished
- action potential duration ([3]; compared with AITC): shorter duration
- after-hyperpolarization of the action potentials ([3]; compared with AITC): did not differ

Reference: patent US20210283163A1, “COMPOSITIONS AND METHODS FOR THE TREATMENT OF ACUTE AND CHRONIC PRURITIS” (Duke University, priority 2018, published 2021)
